Conditions: 303.15 K, Liquid, Vibrating tube method

CCCCCCCC(=O)OCC(COC(=O)CCCCCCC)(COC(=O)CCCCCCC)COC(=O)CCCCCCC [pentaerythritol tetraoctanoate]
Conditions	mass density [kg/m3]
7240.6 kPa	959.8
7273.2 kPa	959.8
7299.8 kPa	960
7389.7 kPa	960
7422.6 kPa	959.9
7449.6 kPa	959.9
7483.3 kPa	960
7511.3 kPa	960
7544.9 kPa	960
7573.7 kPa	960.1
7608.5 kPa	960.1
7643.5 kPa	960.1
7673.8 kPa	960.1
7703.3 kPa	960.1
7739.3 kPa	960.2
7769.3 kPa	960.2
7806.2 kPa	960.1
7836.8 kPa	960.2
7874 kPa	960.2
7904.9 kPa	960.1
7943.2 kPa	960.2
8013.8 kPa	960.3
8160.1 kPa	960.4
8194.2 kPa	960.5
8236.1 kPa	960.4
8272 kPa	960.5
8310.6 kPa	960.5
8341.7 kPa	960.5
8372.2 kPa	960.5
8402.7 kPa	960.5
8428.6 kPa	960.5
8458.8 kPa	960.7
8489.8 kPa	960.6
8521.4 kPa	960.7
8548.1 kPa	960.7
8580.2 kPa	960.7
8612.1 kPa	960.7
8643.8 kPa	960.7
8676.1 kPa	960.8
8703.6 kPa	960.8
8736.1 kPa	960.7
8769.5 kPa	960.9
8802.3 kPa	960.8
8866 kPa	960.8
8901.6 kPa	960.9
8936.7 kPa	960.9
8961.2 kPa	960.8
8990.2 kPa	960.9
9019.5 kPa	960.9
9048.8 kPa	960.9
9078.2 kPa	961
9103.3 kPa	961
9132.9 kPa	961.1
9163.2 kPa	961
9193.9 kPa	961.1
9224.2 kPa	961
9250.4 kPa	961.1
9281.3 kPa	961
9371.4 kPa	961.1
9403.3 kPa	961.2
9435.5 kPa	961.1
9467.7 kPa	961.2
9500.5 kPa	961.2
9527.3 kPa	961.2
9559.2 kPa	961.2
9592.8 kPa	961.2
9618.8 kPa	961.3
9652.6 kPa	961.3
9687 kPa	961.4
9722.3 kPa	961.4
9750.6 kPa	961.4
9785.2 kPa	961.3
9821.4 kPa	961.4
9856.8 kPa	961.4
9893.5 kPa	961.5
9924.2 kPa	961.5
9961.2 kPa	961.5
9999 kPa	961.5
10037 kPa	961.6
10067 kPa	961.6
10092 kPa	961.6
10122 kPa	961.6
10152 kPa	961.6
10177 kPa	961.6
10208 kPa	961.5
10238 kPa	961.7
10270 kPa	961.6
10302 kPa	961.8
10334 kPa	961.7
10357 kPa	961.7
10380 kPa	961.8
10403 kPa	961.6
10423 kPa	961.7
10447 kPa	961.7
10471 kPa	961.7
10491 kPa	961.8
10514 kPa	961.8
10538 kPa	961.9
10562 kPa	961.9
10582 kPa	961.9
10607 kPa	961.9
10631 kPa	961.9
10656 kPa	961.9
10680 kPa	961.9
10702 kPa	962
10727 kPa	962
10751 kPa	961.9
10779 kPa	961.9
10801 kPa	961.9
10826 kPa	962
10852 kPa	962.1
10878 kPa	962.1
10899 kPa	962
10924 kPa	962.1
10950 kPa	962.1
10975 kPa	962.1
10996 kPa	962.2
11075 kPa	962.1
11103 kPa	962.2
11125 kPa	962.2
11152 kPa	962.2
11180 kPa	962.2
11202 kPa	962.2
11229 kPa	962.4
11257 kPa	962.2
11285 kPa	962.3
11313 kPa	962.3
11337 kPa	962.3
11365 kPa	962.4
11393 kPa	962.3
11422 kPa	962.3
11446 kPa	962.4
11475 kPa	962.3
11504 kPa	962.4
11533 kPa	962.4
11562 kPa	962.4
11587 kPa	962.5
11616 kPa	962.5
11645 kPa	962.6
11669 kPa	962.5
11699 kPa	962.6
11729 kPa	962.4
11760 kPa	962.6
11790 kPa	962.6
11816 kPa	962.6
11847 kPa	962.6
11878 kPa	962.7
11909 kPa	962.6
11935 kPa	962.6
11965 kPa	962.7
11996 kPa	962.7
12028 kPa	962.7
12059 kPa	962.7
12086 kPa	962.8
12118 kPa	962.8
12150 kPa	962.8
12183 kPa	962.8
12208 kPa	962.8
12241 kPa	962.9
12274 kPa	962.8
12307 kPa	962.8
12340 kPa	962.9
12368 kPa	963
12402 kPa	962.9
12436 kPa	963
12470 kPa	963.1
12499 kPa	963.1
12533 kPa	962.9
12568 kPa	963
12603 kPa	963
12633 kPa	963.1
12668 kPa	963.1
12704 kPa	963.1
12734 kPa	963.1
12770 kPa	963.2
12805 kPa	963.2
12841 kPa	963.2
12878 kPa	963.1
12916 kPa	963.2
12947 kPa	963.3
12985 kPa	963.3
13022 kPa	963.3
13059 kPa	963.3
13090 kPa	963.4
13128 kPa	963.3
13167 kPa	963.4
13200 kPa	963.3
13240 kPa	963.3
13279 kPa	963.6
13308 kPa	963.5
13346 kPa	963.4
13386 kPa	963.5
13427 kPa	963.6
13468 kPa	963.5
13501 kPa	963.7
13542 kPa	963.6
13577 kPa	963.5
13611 kPa	963.7
13693 kPa	963.7
13813 kPa	963.7
13941 kPa	963.8
13985 kPa	963.8
14067 kPa	964
14112 kPa	964
14142 kPa	964
14187 kPa	964
14240 kPa	964.1
14286 kPa	964.1
14332 kPa	964.1
14371 kPa	964.1
14417 kPa	964.1
14464 kPa	964.1
14512 kPa	964.2
14551 kPa	964.1
14598 kPa	964.1
14647 kPa	964.2
14697 kPa	964.3
14737 kPa	964.2
14787 kPa	964.4
14836 kPa	964.4
14887 kPa	964.3
14930 kPa	964.3
14981 kPa	964.5
15031 kPa	964.5
15083 kPa	964.5
15135 kPa	964.5
15179 kPa	964.6
15234 kPa	964.6
15288 kPa	964.5
15341 kPa	964.7
15388 kPa	964.7
15447 kPa	964.7
15495 kPa	964.8
15554 kPa	964.8
15616 kPa	964.9
15669 kPa	964.9
15728 kPa	964.9
15758 kPa	964.9
15786 kPa	964.9
15815 kPa	965
15840 kPa	964.9
15869 kPa	964.9
15894 kPa	964.9
15923 kPa	964.9
15952 kPa	965.1
15978 kPa	965
16008 kPa	965.1
16032 kPa	965.1
16062 kPa	965.2
16092 kPa	965.1
16117 kPa	965.2
16148 kPa	965.1
16173 kPa	965.1
16205 kPa	965.1
16230 kPa	965.1
16261 kPa	965.2
16288 kPa	965.2
16319 kPa	965.2
16349 kPa	965.2
16375 kPa	965.3
16407 kPa	965.4
16433 kPa	965.3
16465 kPa	965.2
16496 kPa	965.2
16523 kPa	965.3
16556 kPa	965.3
16586 kPa	965.4
16613 kPa	965.4
16645 kPa	965.4
16672 kPa	965.4
16704 kPa	965.3
16737 kPa	965.5
16764 kPa	965.4
16798 kPa	965.5
16825 kPa	965.4
16853 kPa	965.5
16875 kPa	965.6
16908 kPa	965.6
16952 kPa	965.6
16982 kPa	965.7
17016 kPa	965.6
17044 kPa	965.6
17078 kPa	965.6
17112 kPa	965.7
17141 kPa	965.7
17175 kPa	965.7
17209 kPa	965.7
17238 kPa	965.9
17272 kPa	965.8
17302 kPa	965.9
17339 kPa	965.8
17367 kPa	965.9
17402 kPa	965.8
17434 kPa	965.9
17468 kPa	965.9
17504 kPa	966
